Reference: patent US10744128B2, “6-(5-membered heteroaryl)isoquinolin-3-yl-(5-membered heteroaryl) carboxamides and preparation and use thereof” (Samumed, LLC, priority 2017, dated 2020)
Read-outs that look alike come from different tables or passages of the source.

Legend:
recombinant GSK3β kinase = recombinant GSK3β kinase (Homo sapiens (Human), UniProt P49841); assay: GSK3β kinase assay (Ser/Thr 09 peptide Z-lyte, FRET); type: biochemical
[1] = test system: SW480 colon carcinoma cells; assay: Cell viability assay (CellTiter-Glo) in SW480 cells; type: cell-based, human; settings: four days
Description: SW480 colon carcinoma cells were transduced with a lentiviral vector expressing luciferase with a human Sp5 promoter consisting of a sequence of eight TCF/LEF binding sites. SW480 cells stably expressing the Sp5-Luc reporter gene and a hygromycin resistance gene were selected by treatment with 150 µg/mL of hygromycin for 7 days. These stably transduced SW480 cells were expanded in cell culture and used for all further screening activities.
For the Cell Viability Assays, the cells were plated at 2,000 cells/well in 384-well plates with a DMEM medium containing 1% fetal bovine serum, and 1% Penicillin-Streptomycin and incubated for […] at 37° C. and 5% CO2. Eight replicates of DMSO-treated cells served as controls and cells treated with compound were performed in duplicate.
After incubation, 10 μL of CellTiter-Glo (Promega) was added to each well allowed to incubate for approximately 12 minutes. This reagent “results in cell lysis and generation of a luminescent signal proportional to the amount of ATP present. The amount of ATP is directly proportional to the number of cells present in culture, in agreement with previous reports. The CellTiter-Glo® Assay generates a “glow-type” luminescent signal, produced by the luciferase reaction (Promega.com)”.

[2] = test system: Wnt-responsive promoter (Sp5-Luc reporter) in SW480 colon carcinoma cells; assay: Sp5-Luc reporter gene screening assay for Wnt activity in SW480 cells; type: cell-based, human; settings: 36 to 48 hours, luminescence
Excerpt: The screening assay for Wnt activity is described as follows. Reporter cell lines can be generated by stably transducing cancer cell lines (e.g., colon cancer) or primary cells (e.g., IEC-6 intestinal cells) with a lentiviral construct that includes a Wnt-responsive promoter driving expression of the firefly luciferase gene.
SW480 colon carcinoma cells were transduced with a lentiviral vector expressing luciferase with a human Sp5 promoter consisting of a sequence of eight TCF/LEF binding sites. SW480 cells stably expressing the Sp5-Luc reporter gene and a hygromycin resistance gene were selected by treatment with 150 μg/mL of hygromycin for 7 days. These stably transduced SW480 cells were expanded in cell culture and used for all further screening activities. […] For Sp5-Luc reporter gene assays, the cells were plated at 4,000 cells/well in 384-well plates with a DMEM medium containing 1% fetal bovine serum, and 1% Penicillin-Streptomycin and incubated for 36 to 48 hours at 37° C. and 5% CO2. Following incubation, 15 μl of BriteLite Plus luminescence reagent (Perkin Elmer) was added to each well of the 384-well assay plates. The plates were placed on an orbital shaker for 2 min and then luminescence was quantified using the Envision (Perkin Elmer) plate reader. Readings were normalized to DMSO only treated cells, and normalized activities were utilized for EC50 calculations using the dose-response log (inhibitor) vs. response −variable slope (four parameters) nonlinear regression feature available in GraphPad Prism 5.0 (or Dotmatics).

[3] = test system: primary human fibroblasts derived from IPF patients (LL29 cells), α-smooth muscle actin; assay: Inhibition of fibrotic process: αSMA in TGF-β1 treated LL29 fibroblasts; type: cell-based; settings: for EC50: LL29 cells, TGF-β1 20 ng/mL, 4 days, % cells positive for αSMA
Description: Representative compounds were screened using primary human fibroblasts (derived from IPF patients) treated with TGF-β1 to determine their ability to inhibit the fibrotic process.
LL29 cells were plated at 1,500 cells/well in 70 μL/well F12 medium supplemented with 1% Fetal Bovine Serum. […] Wells treated with TGF-β1 and containing DMSO were used as positive control, and cells with only DMSO were negative control. […] Following incubation for 4 days, SYTOX green nucleic acid stain (Life Technologies [Thermo Fisher Scientific]) was added to the wells at a final concentration of 1 μM and incubated at room temperature for 30 min.

[4] = molecular target: recombinant DYRK1A kinase (Homo sapiens (Human), UniProt Q13627); assay: DYRK1A kinase assay (Ser/Thr 18 peptide Z-lyte, FRET)
Description: Each compound was dissolved in DMSO as a 10 mM stock and used to prepare compound source plates.
This is a non-radioactive assay using fluorescence resonance energy transfer (FRET) between coumarin and fluorescein to detect kinase activity which is represented as a ratio of coumarin emission/fluorescein emission.
The mixture was allowed to incubate with the representative compounds for one hour at room temperature. All reactions were performed in duplicate. Unphosphorylated (“0% Control”) and phosphorylated (“100% control”) forms of Ser/Thr 18 served as control reactions. Additionally, an 11-point dose-response curve of Staurosporine (1 uM top) was run to serve as a positive compound control.
After incubation, Development Reagent A was diluted in Development Buffer then added to the reaction and allowed to further incubate for one hour at room temperature.
Dose-response curves were generated and inhibitory concentration (IC50) values were calculated using non-linear regression curve fit in the Dotmatics' Studies Software (Bishops Stortford, UK).

IL-6 = IL-6 inhibition in LPS-stimulated human peripheral blood mononuclear cells (HTRF); type: cell-based; settings: for EC50: huPBMCs, LPS 50 ng/mL, 22 hours, IL-6 HTRF; for inhibition at 10 µM: read-out: percent inhibition at 10 μM
Description: Fresh Normal PB MNC (Catalog # PB001, AllCells, Alameda, Calif.) were shipped overnight at 4° C. and resuspended in Roswell Park Memorial Institute (RPMI) 1640 Medium, with GlutaMAX Supplement (Catalog #61870127, ThermoFisher Scientific, Waltham, Mass.) supplemented with 1% Penicillin-Streptomycin (Catalog #15140163, ThermoFisher Scientific, Waltham, Mass.) and 1% fetal bovine serum (FBS) (Catalog #16140089, ThermoFisher Scientific, Waltham, Mass.) assay media.
Fresh normal human peripheral blood mononuclear cells (huPBMCs) were resuspended in 1% FBS-RPMI assay media with 1% Penicillin-Streptomycin 1% to a cell concentration of 1×10e6 cells/mL. […] 50 ng/mL of Lipopolysaccharides from Escherichia coli 0111:B4 (Catalog #L5293-2ML, Sigma-Aldrich, St. Louis, Mo.) was added after 2 hours and cells were incubated for another 22 hours at 37° C.-5% CO2. After 22 hour incubation, a mixture of anti-IL6 XL665 and anti-IL-6 Cryptate diluted in reconstitution buffer (Catalog #62IL6PEC, Cisbio Inc., Bedford, Mass.) was added to each well. Following incubation for 3 hours at room temperature, Homogeneous Time-Resolved Fluorescence (HTRF) was measured using the Envision (Perkin Elmer, Shelton, Conn.) at 665 nm and […]. The ratio of fluorescence at 665 nm to 620 nm was used as a readout for IL-6 quantification. All samples were processed in duplicate. Readings were normalized to DMSO treated cells and normalized activities were utilized for EC50 calculations. EC50 was determined using software generated by Dotmatics Limited (Windhill Bishops Stortford Herts, UK) using the Levenberg-Marquardt 4 parameter fitting procedure with finite different gradients.

[5] = GSK3β kinase, 46 μM ATP, one hour, method calls values IC50
[6] = DYRK1A kinase, 30 μM ATP, one hour, method calls values IC50

Sequence of recombinant GSK3β kinase (P49841 whole entry): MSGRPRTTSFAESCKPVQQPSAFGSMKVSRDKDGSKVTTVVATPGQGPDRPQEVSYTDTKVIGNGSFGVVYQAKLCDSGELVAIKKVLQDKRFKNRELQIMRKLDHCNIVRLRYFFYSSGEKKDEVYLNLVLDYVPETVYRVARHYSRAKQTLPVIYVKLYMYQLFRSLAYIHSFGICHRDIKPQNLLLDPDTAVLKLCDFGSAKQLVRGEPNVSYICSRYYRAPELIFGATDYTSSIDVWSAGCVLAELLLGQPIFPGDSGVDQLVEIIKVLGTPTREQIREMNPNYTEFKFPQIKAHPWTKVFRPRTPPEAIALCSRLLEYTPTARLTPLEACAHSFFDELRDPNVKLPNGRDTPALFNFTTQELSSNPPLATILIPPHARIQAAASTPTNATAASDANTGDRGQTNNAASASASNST

Compound | EC50 (recombinant GSK3β kinase; [5]) [nM] | EC50 [1] [nM] | EC50 [2] [nM] | EC50 [3] [nM] | EC50 [4, 6] [nM] | EC50 (IL-6) [nM] | EC50 ([1]; Homo sapiens, 96 h) [nM] | EC50 ([2]; Homo sapiens) [nM] | EC50 ([3]; Homo sapiens, Fibroblast, 96 h) [nM] | EC50 (IL-6; Homo sapiens, PBMC) [nM] | EC50 (recombinant GSK3β kinase) [nM] | EC50 [4] [nM] | inhibition at 10 µM ([3]; Homo sapiens, Fibroblast, read-out: percent inhibition at 10 μM) [%] | inhibition at 10 µM (IL-6; Homo sapiens, PBMC) [%]
2-(1-Isopropylpiperidin-4-yl)-N-(6-(1-methyl-1H-pyrazol-4-yl)isoquinolin-3-yl)thiazole-4-carboxamide [Compound 39] | 3710 | 1190 | 70 | 3040 | 26 | 7590 |  |  |  |  |  |  |  | 
CC(C)n1cc(C(=O)Nc2cc3cc(-c4cnn(C5CCN(C)CC5)c4)ccc3cn2)cn1 [Compound 1, 1-Isopropyl-N-(6-(1-(1-methylpiperidin-4-yl)-1H-pyrazol-4-yl)isoquinolin-3-yl)-1H-pyrazole-4-carboxamide] | 9990 |  |  |  | 39 |  | 608 | 387 | 953 | 3440 |  |  |  | 
[2H]C([2H])([2H])n1cc(-c2ccc3cnc(NC(=O)c4cnn(C5CCNCC5)c4)cc3c2)cn1 [Compound 3, N-(6-(1-(Methyl-d3)-1H-pyrazol-4-yl)isoquinolin-3-yl)-1-(piperidin-4-yl)-1H-pyrazole-4-carboxamide] |  |  |  |  |  |  | 38 | 23 | 74 | 1040 | > 10000 | 3 |  | 
CN1CCC(n2cc(C(=O)Nc3cc4cc(-c5cnn(C)c5)ccc4cn3)cn2)CC1 [Compound 4, N-(6-(1-Methyl-1H-pyrazol-4-yl)isoquinolin-3-yl)-1-(1-methylpiperidin-4-yl)-1H-pyrazole-4-carboxamide] | 1480 |  |  |  | 2 |  | 35 | 14 | 94 | 89 |  |  |  | 
[2H]C([2H])([2H])n1cc(-c2ccc3cnc(NC(=O)c4cnn(C5CCN(C)CC5)c4)cc3c2)cn1 [Compound 5, N-(6-(1-(Methyl-d3)-1H-pyrazol-4-yl)isoquinolin-3-yl)-1-(1-methylpiperidin-4-yl)-1H-pyrazole-4-carboxamide] |  |  |  |  |  |  | 34 | 22 | 84 | 218 | 2060 | 2 |  | 
CCN1CCC(n2cc(C(=O)Nc3cc4cc(-c5cnn(C)c5)ccc4cn3)cn2)CC1 [Compound 6, 1-(1-Ethylpiperidin-4-yl)-N-(6-(1-methyl-1H-pyrazol-4-yl)isoquinolin-3-yl)-1H-pyrazole-4-carboxamide] | 1700 |  |  |  | 3 |  | 32 | 15 | 69 | 129 |  |  |  | 
Cn1cc(-c2ccc3cnc(NC(=O)c4cnn(C5CCN(CCF)CC5)c4)cc3c2)cn1 [Compound 7, 1-(1-(2-Fluoroethyl)piperidin-4-yl)-N-(6-(1-methyl-1H-pyrazol-4-yl)isoquinolin-3-yl)-1H-pyrazole-4-carboxamide] | 1500 |  |  |  | 3 |  | 77 | 35 | 47 | 145 |  |  |  | 
Cn1cc(-c2ccc3cnc(NC(=O)c4cnn(C5CCN(C6CC6)CC5)c4)cc3c2)cn1 [Compound 9, 1-(1-cyclopropylpiperidin-4-yl)-N-(6-(1-methyl-1H-pyrazol-4-yl)isoquinolin-3-yl)-1H-pyrazole-4-carboxamide] | 1660 |  |  |  | 2 |  | 104 | 39 | > 10000 | 1100 |  |  | 33.4 | 
Cn1cc(-c2ccc3cnc(NC(=O)c4cn(C5CCNCC5)nn4)cc3c2)cn1 [Compound 11, N-(6-(1-Methyl-1H-pyrazol-4-yl)isoquinolin-3-yl)-1-(piperidin-4-yl)-1H-1,2,3-triazole-4-carboxamide] | 9990 |  |  |  | 7 |  | 273 |  | 607 | 2630 |  |  |  | 
CN1CCC(n2cc(C(=O)Nc3cc4cc(-c5cnn(C)c5)ccc4cn3)nn2)CC1 [Compound 12, N-(6-(1-Methyl-1H-pyrazol-4-yl)isoquinolin-3-yl)-1-(1-methylpiperidin-4-yl)-1H-1,2,3-triazole-4-carboxamide] | 3630 |  |  |  | 9 |  | 470 | 105 | 983 | 3750 |  |  |  | 
Cn1cc(-c2ccc3cnc(NC(=O)c4cn(C5CCN(CCF)CC5)nn4)cc3c2)cn1 [Compound 13, 1-(1-(2-Fluoroethyl)piperidin-4-yl)-N-(6-(1-methyl-1H-pyrazol-4-yl)isoquinolin-3-yl)-1H-1,2,3-triazole-4-carboxamide] | 2080 |  |  |  | 5 |  | 485 | 120 | 260 | 3390 |  |  |  | 
CC(C)N1CCC(n2cc(C(=O)Nc3cc4cc(-c5cnn(C)c5)ccc4cn3)nn2)CC1 [Compound 14, 1-(1-Isopropylpiperidin-4-yl)-N-(6-(1-methyl-1H-pyrazol-4-yl)isoquinolin-3-yl)-1H-1,2,3-triazole-4-carboxamide] | 2750 |  |  |  | 6 |  | 240 | 95 | 410 | > 10000 |  |  |  | 46
[2H]C([2H])([2H])n1cc(-c2ccc3cnc(NC(=O)c4coc(C5CCNCC5)n4)cc3c2)cn1 [Compound 16, N-(6-(1-(Methyl-d3)-1H-pyrazol-4-yl)isoquinolin-3-yl)-2-(piperidin-4-yl) oxazole-4-carboxamide] |  |  |  |  |  |  | 113 | 115 | 312 | 1070 | 769 | 16 |  | 
Cn1cc(-c2ccc3cnc(NC(=O)c4coc(C5CCN(CCF)CC5)n4)cc3c2)cn1 [Compound 21, 2-(1-(2-Fluoroethyl)piperidin-4-yl)-N-(6-(1-methyl-1H-pyrazol-4-yl)isoquinolin-3-yl)oxazole-4-carboxamide] | 1330 |  |  |  | 16 |  | 1260 |  | 9620 | > 10000 |  |  |  | 27.2
